The values that follow come from patent US20230135552A1, “Compounds Useful In Inhibiting Ketohexokinase And Methods Of Making And Using The Same” (Inorbit Therapeutics AB, priority 2020, published 2023).

One assay has as its target T1, KHK (Rattus norvegicus, UniProt Q02974).
T1 construct: from tissue; host or cells: whole animal, male Sprague Dawley rats (in vivo)
T1 sequence (Q02974 1-298): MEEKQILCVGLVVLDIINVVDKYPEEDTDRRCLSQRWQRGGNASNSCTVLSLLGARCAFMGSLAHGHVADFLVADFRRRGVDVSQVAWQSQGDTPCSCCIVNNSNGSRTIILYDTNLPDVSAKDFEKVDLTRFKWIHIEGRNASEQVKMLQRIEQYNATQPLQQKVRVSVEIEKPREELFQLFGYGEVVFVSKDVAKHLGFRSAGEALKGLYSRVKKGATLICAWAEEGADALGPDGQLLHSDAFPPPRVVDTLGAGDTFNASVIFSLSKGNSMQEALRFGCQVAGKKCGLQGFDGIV
As to the kind of experiment: Oral Fructose Tolerance Test (OFTT) in male Sprague Dawley rats. The assay is classed as in vivo. The conditions noted are these: 100 mg/kg oral; fructose bolus 2 g/kg 1 hour after compound; blood at 0.5, 1, 2 and 3 hours post challenge; FIG. 1. On the procedure:
FIG. 1: Graph showing the change in fructose levels from baseline in the control and Example 2 and 6 treated animals in the OFTT study.
The animals were fasted overnight, basal blood samples collected and a 100 mg/kg dose was orally administered of compounds example 2 or example 6. A fructose bolus (2 g/kg) was then given 1 hour after test compound administration and blood samples collected at 0.5, 1, 2 and 3 hours post fructose challenge. All the blood samples were centrifuged immediately and the separated plasma samples were stored at appropriate temperature for the fructose estimation. Plasma fructose concentration was measured by commercially available EnzyChrome fructose assay kit.

Assay [1] has as its target T2, Human Ketohexokinase (KHK-A) (Homo sapiens, UniProt P50053).
T2 construct: Recombinant Human Ketohexokinase, Met1Val298, with C terminal 6His tag; 6His (C); purchased R&D Systems 8177-HK
T2 sequence (P50053 1-298 isoform P50053-2): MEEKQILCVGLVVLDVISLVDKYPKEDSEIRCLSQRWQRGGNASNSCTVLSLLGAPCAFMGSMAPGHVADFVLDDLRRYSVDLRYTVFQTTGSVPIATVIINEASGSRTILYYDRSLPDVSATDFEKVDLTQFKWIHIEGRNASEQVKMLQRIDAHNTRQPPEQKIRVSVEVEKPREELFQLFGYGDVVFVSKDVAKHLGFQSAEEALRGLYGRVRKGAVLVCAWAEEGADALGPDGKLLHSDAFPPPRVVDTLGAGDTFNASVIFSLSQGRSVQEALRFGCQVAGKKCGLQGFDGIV
As to the kind of experiment: Transcreener Kinase ADP2 FP assay, inhibition of human KHK-A. The assay is classed as biochemical. The conditions noted are these: recombinant human KHK-A 17.5 nM, 0.3 mM ATP, 7 mM fructose, 30 min pre-incubation, 60 min at 30° C. On the procedure: The following materials and methods were used, • Enzyme description and source: Recombinant Human Ketohexokinase, Met1Val298, with C terminal 6His tag (R&D Systems, 8177-HK). • Reagents: 200 μM ATP and 100 mM D-(−)-Fructose (Sigma F0127) as substrates. • Enzyme reaction buffer: 25 mM HEPES, 300 mM KCl, 10 mM MgCl2, 10 mM CaCl2, pH 7.0. • Control compound: KHK Inhibitor (Millipore-Sigma 420640) See Maryanoff, B. E., et al. 2011. ACS Med. Chem. Lett. 2, 538. • Assay: Transcreener Kinase ADP2 FP assay as described: https://www.bellbrooklabs.com/products/transcreener-hts-assays/kinase-assays/ • Assay parameters: 12-point dose response (n=2), 3-fold serial dilution, starting at 100 μM
KHK-A was added to the tested compounds (from 10 mM stock solution in 25 mM Tris pH 7.4), to a total volume 5 μl, and pre-incubated for 30 minutes at rt to ensure E*I complex formation. The reaction was then initiated by addition of an equal volume (5 μl) containing ATP and Fructose to give a resulting mix of 17.5 nM KHK-A, 0.3 mM ATP, 7 mM Fructose, 25 mM Tris (pH 7.4), 10 mM MgCl2, 10 mM CaCl2 and 50 mM KCl. Following 60 min at 30° C., reactions were quenched with 10 μl of stop/detect mix (40 mM HEPES (pH 7.5), 80 mM EDTA, 0,04% Brij-35, 8 nM ADP tracer and optimal concentration of ADP2 antibody), The plates were read on a PHERAstar PLUS after 1-hour room temperature equilibration. […]

A word on the IC50: it is the concentration that inhibits the measured activity by half.

`C[C@H]1CCN1c1nc(N2C[C@@H]3[C@H](C2)[C@H]3CS(=O)O)cc(C(F)(F)F)n1` [Example 2, sodium((1R,5S,6S)-3-(2-((S)-2-methylazetidin-1-yl)-6-(trifluoromethyl)pyrimidin-4-yl)-3-azabicyclo[3.1.0]hexan-6-yl)methanesulfinate]: the “change in fructose levels from baseline (plasma fructose) versus the control group” value on KHK is recorded as “increase of fructose plasma levels”. In assay [1], the IC50 amounted to 740 nM.

For `Cc1c(N2C[C@@H]3[C@H](C2)[C@H]3CS(=O)O)nc(N2CC[C@@H]2C)nc1C(F)(F)F` [Example 6, sodium((1R,5S,6S)-3-(5-methyl-2-((S)-2-methylazetidin-1-yl)-6-(trifluoromethyl)pyrimidin-4-yl)-3-azabicyclo[3.1.0]hexan-6-yl)methanesulfinate], the “change in fructose levels from baseline (plasma fructose) versus the control group” value at KHK is reported as “increase of fructose plasma levels”. Besides, the IC50 in assay [1] was determined as 78 nM.
